According to US11530216B2, “Deuterated colony stimulating factor-1 receptor (CSF-1R) inhibitors” (Genzyme Corporation, priority 2020, dated 2022):

Assays:
[1] = system: MCP-1 production in primary mouse microglia (wild type, SOD1); assay: MCP-1 ELISA, wild-type and SOD1 primary microglia, CSF-1 stimulation; assay type: cell-based; conditions: CSF-1 stimulation, 50, 100, 200 nM, wild type and SOD1 cells
Experimental: (§1) The impact of a deuterated CSF-1R inhibitor of this disclosure on cytokine/chemokine production following CSF-1 or LPS stimulation in wild-type versus SOD1 mutant primary microglial cells was examined in the following experiments.
(§2) Methods Treatment and Stimulation of Primary Microglial Cells
(§3) Primary mouse microglia were suspended at a concentration of 5×10^5 cells/mL and 100 μL of this cell suspension was added to each well of a 96-well plate. Microglia cells were allowed to rest overnight at 37° C., 5% CO2. […] Cells were then stimulated with 100 ng/mL recombinant mouse M-CSF for 30 minutes or 10 ng/mL lipopolysaccharide for 24 hours. After stimulation, the culture supernatant was removed from each well and aliquoted into two different 96-well plates for subsequent ELISA assays.
(§4) Culture supernatants were assayed with the Quantikine Mouse MCP-1 ELISA kit from R&D Systems (cat #SMJE00B). Samples were diluted 1:10 with Calibrator Diluent. Fifty microliters of Assay Diluent were first added to each well. Fifty microliters of Standards, Assay Control and diluted Sample were then added to the wells. The plate was mixed by gently tapping the frame, then sealed with an adhesive strip. The plate incubated for 2 hours at room temperature. […] After incubation, the acid stop solution was added to each well, and the plate was read on the ELISA plate reader at 450 nm.

[2] = system: IL-12p40 production in primary mouse microglia (wild type, SOD1); assay: IL-12p40 ELISA, wild-type and SOD1 primary microglia, LPS stimulation; assay type: cell-based; conditions: LPS stimulation, 50, 100, 200 nM, wild type and SOD1 cells
Experimental: as §1, §2, §3
as §4, with “Cell culture supernatants were” for “Culture supernatants were”, “Quantikine Mouse IL-12p40 ELISA kit” for “Quantikine Mouse MCP-1 ELISA kit”, “Systems (cat #MP400). Samples were” for “Systems (cat #SMJE00B). Samples were”, “then added in singlicate to the” for “then added to the”

[2H]c1nc2cccnc2n1Cc1cc(OC)c2c(c1)O[C@@H](C)[C@H](c1ccc(OC)nc1)O2 [Compound 6, 3-(((2S,3S)-8-methoxy-2-(6-methoxypyridin-3-yl)-3-methyl-2,3-dihydrobenzo[b][1,4]dioxin-6-yl)methyl)-3H-imidazo[4,5-b]pyridine-2-d]
MCP-1 production [1]: significantly reduced MCP-1 production in a concentration dependent manner
IL12-p40 production [2]: significantly reduced IL12-p40 production in a concentration dependent manner
